According to article PMC8383318, “Preclinical Pharmacokinetics, Tissue Distribution, and Primary Safety Evaluation of Indo5, a Novel Selective Inhibitor of c-Met and Trks” (Frontiers in Pharmacology, 2021):

How the values were obtained:
[1] = Tissue-distribution study in rats; assay type: in vivo, Wistar rats
[2] = Pharmacokinetic study in rat plasma (IV and oral), LC-MS/MS, non-compartmental analysis; assay type: in vivo, Wistar rats
Procedure: For intravenous (IV) treatment, Indo5 was dissolved in DMSO (solution, 1 mg/ml) and injected into the lateral tail vein of rats (1 mg/kg, n = 3). For intragastric treatment, Indo5 was dissolved in 5% CMC-Na (suspension, 20 mg/ml). The rats were orally administered with Indo5 (100 mg/kg, n = 3) using a 20-G gavage needle. All of the animals were given a standard diet 4 h after the dosing. Blood samples (approximately 400 μl) were collected from each rat and placed into heparinized tubes before the dosing, and at 5, 15, 30, 60, 120, 240, and 480 min after the dosing. Plasma (100 μl) was harvested by centrifuging blood samples at 3,600 g for 10 min at room temperature followed by immediate processing for the analyses.
Briefly, 400 μl acetonitrile was added to 100 μl rat plasma or tissue homogenate, vortexed for 30 s, and centrifuged at 10,000 g for 10 min at room temperature to precipitate proteins. Subsequently, the supernatant (40 μl) was introduced into the HPLC/MS system. Plasma or tissue concentrations of Indo5 were determined using HPLC-MS/MS validated for pharmacokinetics.
The plasma concentration–time data obtained after intravenous and intragastric administrations were subjected to non-compartmental analyses based on the statistical moment theory. Pharmacokinetic parameters were calculated using WinNorlin 5.2 (Certara; www.certara.com/). These parameters included the maximum plasma concentration (Cmax), time to reach Cmax (Tmax), elimination half-life (t1/2), area under the plasma concentration–time curve from time zero to infinity (AUC0–∞), mean residence time (MRT), and clearance (CL). The absolute oral bioavailability was calculated by dividing the AUCtot obtained from oral administration by the AUCtot obtained from IV administration, and the calculation was adjusted using the doses that had been administered via oral and IV routes.

TrkA = system: TrkA; design: method as in Luo et al., 2019; settings: ref Luo et al., 2019; read-out: half-maximal inhibitory concentration, TrkA kinase activity; cited from earlier work
HCC cells = system: HCC cells; design: method as in Luo et al., 2019; settings: ref Luo et al., 2019, cited from earlier work
[3] = design: species or system mice; settings: mouse, in vivo, po, 60 mg/kg
TrkB = system: TrkB; design: method as in Luo et al., 2019; settings: ref Luo et al., 2019; read-out: half-maximal inhibitory concentration, TrkB kinase activity; cited from earlier work
[4] = oral (p.o.) 100 mg/kg in CMC-Na suspension, n = 3

Cc1ccccc1NS(=O)(=O)c1ccc2c(c1)C(=Cc1nc3ccccc3[nH]1)C(=O)N2 [Indo5, 3-(1H-benzimidazol-2-methylene)-5-(2-methylphenylaminosulfo)-2-indolone]
crossing of blood–brain and blood–testes barriers [1]: could not cross the blood–brain or blood–testes barriers
Tmax ([2]; IV 1 mg/kg): 1 min
AUC0-t ([2]; IV 1 mg/kg in DMSO, n = 3): 158.6 ± 27.9 ng·h/mL
AUC0-∞ ([2]; IV 1 mg/kg in DMSO, n = 3): 163.4 ± 28.3 ng·h/mL
CL ([2]; IV 1 mg/kg in DMSO, n = 3): 6,121.6 ± 1,124.8 ml/h/kg
Cmax ([2]; IV 1 mg/kg in DMSO, n = 3): 1,565.3 ± 286.2 ng/ml
MRT0-t ([2]; IV 1 mg/kg in DMSO, n = 3): 10.8 ± 2.4 min
MRT0-∞ ([2]; IV 1 mg/kg in DMSO, n = 3): 15.6 ± 3.6 min
Tmax ([2]; IV 1 mg/kg in DMSO, n = 3): 1 min
t1/2 ([2]; IV 1 mg/kg in DMSO, n = 3): 37.8 ± 6.6 min
AUC0-t [2, 4]: 251.5 ± 43.5 ng·h/mL
AUC0-∞ [2, 4]: 255.7 ± 44.9 ng·h/mL
CL [2, 4]: 391056.4 ± 77,945.8 ml/h/kg
Cmax [2, 4]: 54.7 ± 10.4 ng/mL
MRT0-t [2, 4]: 172 ± 36.6 min
MRT0-∞ [2, 4]: 179 ± 37.8 min
Tmax [2, 4]: 120 ± 28.8 min
Vd [2, 4]: 706.349 ± 106.9412 L/kg
t1/2 [2, 4]: 75 ± 14.4 min
IC50 (TrkA): 28 nM
survival of mice with hepatic orthotopic tumors (HCC cells; hepatic orthotopic tumors): increases the survival
growth of HCC cells in xenograft-transplanted mice (HCC cells; xenograft-transplanted mice): significantly decreases the growth of HCC cells
histological analysis of liver tissue [3]: no pathological changes
number and frequencies of immune cells in the liver (flow cytometry) [3]: did not affect the number or frequencies of immune cells in the liver
IC50 (TrkB): 25 nM
